Experimental data taken from ChEMBL document CHEMBL1130161, “Cyclic urea amides: HIV-1 protease inhibitors with low nanomolar potency against both wild type and protease inhibitor resistant mutants of HIV” (J Med Chem, 1997).

Test system: Human immunodeficiency virus
Experiment: Resistance of constructed mutant 48V/90M virus was calculated as (IC90 for a mutant virus / IC90 of wt HXB2 virus)
Assay type: functional
Settings: not given

Row | Structure (SMILES) | Resistance
1 | O=C(Nc1ncc[nH]1)c1cccc(CN2C(=O)N(Cc3ccccc3)[C@H](Cc3ccccc3)[C@H](O)[C@@H](O)[C@H]2Cc2ccccc2)c1 | 0.6
2 | CC(C)(C)NC(=O)[C@@H]1CN(Cc2cccnc2)CCN1C[C@@H](O)C[C@@H](Cc1ccccc1)C(=O)N[C@H]1c2ccccc2C[C@H]1O.O | 3.6
3 | CC(C)[C@H](NC(=O)OCc1ccccc1)C(=O)N[C@@H](Cc1ccccc1)[C@H](O)[C@@H](O)[C@@H](Cc1ccccc1)NC(=O)[C@H](NC(=O)OCc1ccccc1)C(C)C | 1.3
4 | CCCCN1C(=O)N(Cc2cccc(C(=O)Nc3ncc[nH]3)c2)[C@H](Cc2ccccc2)[C@H](O)[C@@H](O)[C@H]1Cc1ccccc1 | 1

Test system: Human immunodeficiency virus
Experiment: Resistance of constructed mutant ABT538 virus was calculated as (IC90 for a mutant virus / IC90 of wt HXB2 virus)
Assay type: functional
Settings: not given

Row | Structure (SMILES) | Resistance
5 | O=C(Nc1ncc[nH]1)c1cccc(CN2C(=O)N(CC3CC3)[C@H](Cc3ccccc3)[C@H](O)[C@@H](O)[C@H]2Cc2ccccc2)c1 | 83
6 | O=C(Nc1ncc[nH]1)c1cccc(CN2C(=O)N(Cc3ccccc3)[C@H](Cc3ccccc3)[C@H](O)[C@@H](O)[C@H]2Cc2ccccc2)c1 | 29
7 | CC(C)(C)NC(=O)[C@@H]1CN(Cc2cccnc2)CCN1C[C@@H](O)C[C@@H](Cc1ccccc1)C(=O)N[C@H]1c2ccccc2C[C@H]1O.O | 6.5
8 | CC(C)[C@H](NC(=O)OCc1ccccc1)C(=O)N[C@@H](Cc1ccccc1)[C@H](O)[C@@H](O)[C@@H](Cc1ccccc1)NC(=O)[C@H](NC(=O)OCc1ccccc1)C(C)C | 13
9 | CCCCN1C(=O)N(Cc2cccc(C(=O)Nc3ncc[nH]3)c2)[C@H](Cc2ccccc2)[C@H](O)[C@@H](O)[C@H]1Cc1ccccc1 | 27

Target: Human immunodeficiency virus type 1 protease (Human immunodeficiency virus 1, UniProt Q72874)
Experiment: Binding affinity to inhibit the purified wild-type HIV-1 Protease
Settings: not given

Row | Structure (SMILES) | Ki
10 | O=C(Nc1ncc[nH]1)c1cccc(CN2C(=O)N(CC3CC3)[C@H](Cc3ccccc3)[C@H](O)[C@@H](O)[C@H]2Cc2ccccc2)c1 | 0.016 nM
11 | O=C(Nc1ncc[nH]1)c1cccc(CN2C(=O)N(Cc3ccccc3)[C@H](Cc3ccccc3)[C@H](O)[C@@H](O)[C@H]2Cc2ccccc2)c1 | 0.033 nM
12 | CC(C)[C@H](NC(=O)OCc1ccccc1)C(=O)N[C@@H](Cc1ccccc1)[C@H](O)[C@@H](O)[C@@H](Cc1ccccc1)NC(=O)[C@H](NC(=O)OCc1ccccc1)C(C)C | 0.25 nM
13 | CCCCN1C(=O)N(Cc2cccc(C(=O)Nc3ncc[nH]3)c2)[C@H](Cc2ccccc2)[C@H](O)[C@@H](O)[C@H]1Cc1ccccc1 | 0.025 nM

Test system: not listed separately
Experiment: Resistance of constructed mutant 82F virus was calculated as (IC90 for a mutant virus / IC90 of wt HXB2 virus).
Assay type: functional
Settings: not given

Row | Structure (SMILES) | Resistance
14 | O=C(Nc1ncc[nH]1)c1cccc(CN2C(=O)N(Cc3ccccc3)[C@H](Cc3ccccc3)[C@H](O)[C@@H](O)[C@H]2Cc2ccccc2)c1 | 0.5
15 | CC(C)(C)NC(=O)[C@@H]1CN(Cc2cccnc2)CCN1C[C@@H](O)C[C@@H](Cc1ccccc1)C(=O)N[C@H]1c2ccccc2C[C@H]1O.O | 2.8
16 | CC(C)[C@H](NC(=O)OCc1ccccc1)C(=O)N[C@@H](Cc1ccccc1)[C@H](O)[C@@H](O)[C@@H](Cc1ccccc1)NC(=O)[C@H](NC(=O)OCc1ccccc1)C(C)C | 1.8
17 | CCCCN1C(=O)N(Cc2cccc(C(=O)Nc3ncc[nH]3)c2)[C@H](Cc2ccccc2)[C@H](O)[C@@H](O)[C@H]1Cc1ccccc1 | 14.5

Test system: Human immunodeficiency virus
Experiment: Resistance of constructed mutant […]/47V/50V virus was calculated as (IC90 for a mutant virus / IC90 of wt HXB2 virus).
Assay type: functional
Settings: not given

Row | Structure (SMILES) | Resistance
18 | CC(C)(C)NC(=O)[C@@H]1CN(Cc2cccnc2)CCN1C[C@@H](O)C[C@@H](Cc1ccccc1)C(=O)N[C@H]1c2ccccc2C[C@H]1O.O | 1.8
19 | CC(C)[C@H](NC(=O)OCc1ccccc1)C(=O)N[C@@H](Cc1ccccc1)[C@H](O)[C@@H](O)[C@@H](Cc1ccccc1)NC(=O)[C@H](NC(=O)OCc1ccccc1)C(C)C | 6.5

Test system: Human immunodeficiency virus
Experiment: Resistance of constructed mutant 84V virus was calculated as (IC90 for a mutant virus / IC90 of wt HXB2 virus).
Assay type: functional
Settings: not given

Row | Structure (SMILES) | Resistance
20 | O=C(Nc1ncc[nH]1)c1cccc(CN2C(=O)N(Cc3ccccc3)[C@H](Cc3ccccc3)[C@H](O)[C@@H](O)[C@H]2Cc2ccccc2)c1 | 2.9
21 | CC(C)(C)NC(=O)[C@@H]1CN(Cc2cccnc2)CCN1C[C@@H](O)C[C@@H](Cc1ccccc1)C(=O)N[C@H]1c2ccccc2C[C@H]1O.O | 0.5
22 | CC(C)[C@H](NC(=O)OCc1ccccc1)C(=O)N[C@@H](Cc1ccccc1)[C@H](O)[C@@H](O)[C@@H](Cc1ccccc1)NC(=O)[C@H](NC(=O)OCc1ccccc1)C(C)C | 2.1
23 | CCCCN1C(=O)N(Cc2cccc(C(=O)Nc3ncc[nH]3)c2)[C@H](Cc2ccccc2)[C@H](O)[C@@H](O)[C@H]1Cc1ccccc1 | 4.2

Target: Human immunodeficiency virus type 1 protease (Human immunodeficiency virus 1) (UniProt Q72874)
Experiment: Inhibitory concentration against accumulation of viral p24 antigen following infection of MT-4 cells
Assay type: functional, cell-based
Settings: MT4

Row | Structure (SMILES) | IC90
24 | O=C(Nc1ncc[nH]1)c1cccc(CN2C(=O)N(CC3CC3)[C@H](Cc3ccccc3)[C@H](O)[C@@H](O)[C@H]2Cc2ccccc2)c1 | 28 nM
25 | O=C(Nc1ncc[nH]1)c1cccc(CN2C(=O)N(Cc3ccccc3)[C@H](Cc3ccccc3)[C@H](O)[C@@H](O)[C@H]2Cc2ccccc2)c1 | 21 nM
26 | CC(C)(C)NC(=O)[C@@H]1CN(Cc2cccnc2)CCN1C[C@@H](O)C[C@@H](Cc1ccccc1)C(=O)N[C@H]1c2ccccc2C[C@H]1O.O | 28 nM
27 | CC(C)[C@H](NC(=O)OCc1ccccc1)C(=O)N[C@@H](Cc1ccccc1)[C@H](O)[C@@H](O)[C@@H](Cc1ccccc1)NC(=O)[C@H](NC(=O)OCc1ccccc1)C(C)C | 195 nM
28 | CCCCN1C(=O)N(Cc2cccc(C(=O)Nc3ncc[nH]3)c2)[C@H](Cc2ccccc2)[C@H](O)[C@@H](O)[C@H]1Cc1ccccc1 | 18 nM

Test system: Human immunodeficiency virus
Experiment: Resistance of constructed mutant 82A virus was calculated as (IC90 for a mutant virus / IC90 of wt HXB2 virus).
Assay type: functional
Settings: not given

Row | Structure (SMILES) | Resistance
29 | O=C(Nc1ncc[nH]1)c1cccc(CN2C(=O)N(Cc3ccccc3)[C@H](Cc3ccccc3)[C@H](O)[C@@H](O)[C@H]2Cc2ccccc2)c1 | 1
30 | CC(C)(C)NC(=O)[C@@H]1CN(Cc2cccnc2)CCN1C[C@@H](O)C[C@@H](Cc1ccccc1)C(=O)N[C@H]1c2ccccc2C[C@H]1O.O | 2.5
31 | CC(C)[C@H](NC(=O)OCc1ccccc1)C(=O)N[C@@H](Cc1ccccc1)[C@H](O)[C@@H](O)[C@@H](Cc1ccccc1)NC(=O)[C@H](NC(=O)OCc1ccccc1)C(C)C | 6
32 | CCCCN1C(=O)N(Cc2cccc(C(=O)Nc3ncc[nH]3)c2)[C@H](Cc2ccccc2)[C@H](O)[C@@H](O)[C@H]1Cc1ccccc1 | 1.4

Test system: Human immunodeficiency virus
Experiment: Resistance of constructed mutant MK639 virus was calculated as (IC90 for a mutant virus / IC90 of wt HXB2 virus).
Assay type: functional
Settings: not given

Row | Structure (SMILES) | Resistance
33 | O=C(Nc1ncc[nH]1)c1cccc(CN2C(=O)N(CC3CC3)[C@H](Cc3ccccc3)[C@H](O)[C@@H](O)[C@H]2Cc2ccccc2)c1 | 12
34 | O=C(Nc1ncc[nH]1)c1cccc(CN2C(=O)N(Cc3ccccc3)[C@H](Cc3ccccc3)[C@H](O)[C@@H](O)[C@H]2Cc2ccccc2)c1 | 15
35 | CC(C)(C)NC(=O)[C@@H]1CN(Cc2cccnc2)CCN1C[C@@H](O)C[C@@H](Cc1ccccc1)C(=O)N[C@H]1c2ccccc2C[C@H]1O.O | 18
36 | CC(C)[C@H](NC(=O)OCc1ccccc1)C(=O)N[C@@H](Cc1ccccc1)[C@H](O)[C@@H](O)[C@@H](Cc1ccccc1)NC(=O)[C@H](NC(=O)OCc1ccccc1)C(C)C | >150
37 | CCCCN1C(=O)N(Cc2cccc(C(=O)Nc3ncc[nH]3)c2)[C@H](Cc2ccccc2)[C@H](O)[C@@H](O)[C@H]1Cc1ccccc1 | 14.5
